# Values of other authors in US20040102462A1, “2-(2-amino-1,6-dihydro-6-oxo-purin-9-yl) methoxy-1,3-propanediol derivative” (priority 1994, published 2004).
# Conditions: rats; % of the acyclovir dosed
smiles,measurement,value
"Nc1nc2c(ncn2COCCO)c(=O)[nH]1 [acyclovir, 2-(2-amino-1,6-dihydro-6-oxo-1,6-dihydro-purin-9-yl)methoxy-ethanol]",acyclovir recovered in the urinary recovery assay,19%
